Laboratory results: ChEMBL document CHEMBL1137662, “Effect of oral treatment with hexadecyloxypropyl-[(S)-9-(3-hydroxy-2- phosphonylmethoxypropyl)adenine] [(S)-HPMPA] or octadecyloxyethyl-(S)-HPMPA on cowpox or vaccinia virus infections in mice” (Antimicrob Agents Chemother, 2007)
Active and inactive are the calls of the source. No cut-off for these calls is given here.

Legend:
Vaccinia virus [1] = assay: Antiviral activity against Vaccinia virus WR infected BALB/c mouse assessed as mortality at 15 mg/kg, ip treated for 5 days after 72 hrs of viral inoculation; type: functional, Orthopoxvirus vaccinia; conditions: route intraperitoneal
[2] = Cytotoxicity against HFF cells after 7 days; type: cell-based; conditions: human
Cowpox virus [3] = assay: Antiviral activity against Cowpox virus Brighton infected BALB/c mouse assessed as mortality at 10 mg/kg, ip treated for 5 days after 48 hrs of viral inoculation; type: functional, Cowpox virus (Brighton Red); conditions: route intraperitoneal
Vaccinia virus [4] = assay: Antiviral activity against Vaccinia virus WR infected BALB/c mouse assessed as mortality at 10 mg/kg, ip treated for 5 days after 48 hrs of viral inoculation; type: functional, Orthopoxvirus vaccinia; conditions: route intraperitoneal
Vaccinia virus [5] = assay: Antiviral activity against Vaccinia virus WR infected BALB/c mouse assessed as mortality at 10 mg/kg, ip treated for 5 days after 24 hrs of viral inoculation; type: functional, Orthopoxvirus vaccinia; conditions: route intraperitoneal
Cowpox virus [6] = assay: Antiviral activity against Cowpox virus Brighton infected BALB/c mouse assessed as mean death day at 10 mg/kg, po treated for 5 days after 48 hrs of viral inoculation; type: functional, Cowpox virus (Brighton Red)
Vaccinia virus [7] = assay: Antiviral activity against Vaccinia virus WR infected BALB/c mouse assessed as mortality at 15 mg/kg, ip treated for 5 days after 24 hrs of viral inoculation; type: functional, Orthopoxvirus vaccinia; conditions: route intraperitoneal
Vaccinia virus [8] = assay: Antiviral activity against Vaccinia virus WR infected BALB/c mouse assessed as reduction of viral titer in lung at 30 mg/kg, po treated for 5 days after 24 hrs of viral inoculation; type: functional, organism-based; set-up: dose 30 mg/kg; conditions: Orthopoxvirus vaccinia
[9] = Selectivity index, ratio of CC50 for HFF cells to EC50 for Vaccinia virus WR; type: toxicity, cell-based; conditions: human, read-out: Ratio CC50/EC50
Cowpox virus [10] = assay: Antiviral activity against Cowpox virus Brighton infected BALB/c mouse assessed as mortality at 10 mg/kg, ip treated for 5 days after 24 hrs of viral inoculation; type: functional, Cowpox virus (Brighton Red); conditions: route intraperitoneal
Vaccinia virus [11] = assay: Antiviral activity against Vaccinia virus WR infected BALB/c mouse assessed as mortality at 15 mg/kg, ip treated for 5 days after 48 hrs of viral inoculation; type: functional, Orthopoxvirus vaccinia; conditions: route intraperitoneal
Vaccinia virus [12] = assay: Antiviral activity against Vaccinia virus WR infected BALB/c mouse assessed as mortality at 10 mg/kg, ip treated for 5 days after 72 hrs of viral inoculation; type: functional, Orthopoxvirus vaccinia; conditions: route intraperitoneal
Vaccinia virus [13] = assay: Antiviral activity against Vaccinia virus Copenhagen in HFF cells assessed as reduction of viral replication after 3 days; type: functional, organism-based; conditions: Orthopoxvirus vaccinia, 72 h
[14] = Selectivity index, ratio of CC50 for HFF cells to EC50 for Vaccinia virus Copenhagen; type: toxicity, cell-based; conditions: human, read-out: Ratio CC50/EC50
[15] = Selectivity index, ratio of CC50 for HFF cells to EC50 for Cowpox virus Brighton; type: toxicity, cell-based; conditions: human, read-out: Ratio CC50/EC50
Cowpox virus [16] = assay: Antiviral activity against Cowpox virus Brighton infected BALB/c mouse assessed as mortality at 10 mg/kg, ip treated for 5 days after 72 hrs of viral inoculation; type: functional, Cowpox virus (Brighton Red); conditions: route intraperitoneal
Cowpox virus [17] = assay: Antiviral activity against Cowpox virus Brighton in HFF cells assessed as reduction of viral replication after 3 days; type: functional, organism-based, Cowpox virus (Brighton Red); conditions: 72 h
Vaccinia virus [18] = assay: Antiviral activity against Vaccinia virus WR in HFF cells assessed as reduction of viral replication after 3 days; type: functional, organism-based; conditions: Orthopoxvirus vaccinia, 72 h
[19] = Oral bioavailability in Swiss Webster mouse at 10 mg/kg; type: ADME, organism-based; conditions: in vivo

Compound	Activity (Vaccinia virus [1]) [%]	CC50 at 168 h [2] [µM]	Activity (Cowpox virus [3]) [%]	Activity (Vaccinia virus [4]) [%]	Activity (Vaccinia virus [5]) [%]	Activity (Cowpox virus [6]) [days]	Activity (Vaccinia virus [7]) [%]	Activity (Vaccinia virus [8])	selectivity ratio [9]	Activity (Cowpox virus [10]) [%]	Activity (Vaccinia virus [11]) [%]	Activity (Vaccinia virus [12]) [%]	EC50 (Vaccinia virus [13]) [nM]	selectivity ratio [14]	selectivity ratio [15]	Activity (Cowpox virus [16]) [%]	EC50 (Cowpox virus [17]) [µM]	EC50 (Vaccinia virus [18]) [µM]	bioavailability [19] [%]
Nc1ccn(C[C@@H](CO)OCP(=O)(O)O)c(=O)n1.O.O [CIDOFOVIR]	0	> 317	0	0	0	11	0	Active	> 10.9	0	100	143	26000	> 12.2	> 9.1	0	35		
Nc1ncnc2c1ncn2C[C@@H](CO)OCP(=O)(O)O		> 289							> 44				2700	> 107	> 72		4	6.5	24
CCCCCCCCCCCCCCCCOCCCOP(=O)(O)CO[C@H](CO)Cn1ccc(N)nc1=O [BRINCIDOFOVIR]		31							28				800	39	52		0.6	1.1	
